Test results reported in US8063048B2, “Acetylenyl-pyrazolo-pyrimidine derivatives” (Hoffmann-La Roche Inc., priority 2005, dated 2011).

SMILES	melting point
COc1ccc(C#Cc2cnn3c(C4CC4)cc(-c4ccc(Cl)cc4)nc23)cc1S(=O)(=O)NC(C)(C)CO [Example 69, 5-[5-(4-Chloro-phenyl)-7-cyclopropyl-pyrazolo[1,5-a]pyrimidin-3-ylethynyl]-N-(2-hydroxy-1,1-dimethyl-ethyl)-2-methoxy-benzenesulfonamide]	253 to 256 °C
NS(=O)(=O)c1cc(C#Cc2cnn3c(C4CC4)cc(-c4ccc(Cl)cc4)nc23)c(F)cc1F [Example 70, 5-[5-(4-Chloro-phenyl)-7-cyclopropyl-pyrazolo[1,5-a]pyrimidin-3-ylethynyl]-2,4-difluoro-benzenesulfonamide]	272 to 275 °C
NS(=O)(=O)c1cccc(C#Cc2cnn3c(C4CC4)cc(-c4ccc(Cl)cc4)nc23)c1 [Example 72, 3-[5-(4-Chloro-phenyl)-7-cyclopropyl-pyrazolo[1,5-a]pyrimidin-3-ylethynyl]-benzenesulfonamide]	236 to 237 °C
NS(=O)(=O)c1cncc(C#Cc2cnn3ccc(-c4ccc(Cl)cc4)nc23)c1 [Example 73, 5-[5-(4-Chloro-phenyl)-pyrazolo[1,5-a]pyrimidin-3-ylethynyl]-pyridine-3-sulfonic acid amide]	248 to 249 °C
CC(C)(CO)NS(=O)(=O)c1cncc(C#Cc2cnn3ccc(-c4ccc(Cl)cc4)nc23)c1 [Example 74, 5-[5-(4-Chloro-phenyl)-pyrazolo[1,5-a]pyrimidin-3-ylethynyl]-pyridine-3-sulfonic acid (2-hydroxy-1,1-dimethyl-ethyl)-amide]	185 to 186 °C
COc1ccc(C#Cc2cnn3ccc(-c4ccc(Cl)cc4)nc23)cc1S(=O)(=O)NC(C)(C)CO [Example 75, 5-[5-(4-Chloro-phenyl)-pyrazolo[1,5-a]pyrimidin-3-ylethynyl]-N-(2-hydroxy-1,1-dimethyl-ethyl)-2-methoxy-benzenesulfonamide]	264 to 266 °C
NS(=O)(=O)c1ccc(C#Cc2cnn3c(C4CC4)cc(-c4ccc(C(F)(F)F)cc4)nc23)cc1 [Example 76, 4-[7-Cyclopropyl-5-(4-trifluoromethyl-phenyl)-pyrazolo[1,5-a]pyrimidin-3-ylethynyl]-benzenesulfonamide]	228 to 230 °C
NS(=O)(=O)c1cc(C#Cc2cnn3c(C4CC4)cc(-c4ccc(C(F)(F)F)cc4)nc23)c(F)cc1F [Example 77, 5-[7-Cyclopropyl-5-(4-trifluoromethyl-phenyl)-pyrazolo[1,5-a]pyrimidin-3-ylethynyl]-2,4-difluoro-benzenesulfonamide]	255 to 257 °C
CC(C)(CO)NS(=O)(=O)c1cncc(C#Cc2cnn3c(C4CC4)cc(-c4ccc(C(F)(F)F)cc4)nc23)c1 [Example 78, 5-[7-Cyclopropyl-5-(4-trifluoromethyl-phenyl)-pyrazolo[1,5-a]pyrimidin-3-ylethynyl]-pyridine-3-sulfonic acid (2-hydroxy-1,1-dimethyl-ethyl)-amide]	190 to 191 °C
NS(=O)(=O)c1cncc(C#Cc2cnn3c(C4CC4)cc(-c4ccc(C(F)(F)F)cc4)nc23)c1 [Example 79, 5-[7-Cyclopropyl-5-(4-trifluoromethyl-phenyl)-pyrazolo[1,5-a]pyrimidin-3-ylethynyl]-pyridine-3-sulfonic acid amide]	276 to 277 °C
CC(CO)(CO)NS(=O)(=O)c1cncc(C#Cc2cnn3c(C4CC4)cc(-c4ccc(C(F)(F)F)cc4)nc23)c1 [Example 80, 5-[7-Cyclopropyl-5-(4-trifluoromethyl-phenyl)-pyrazolo[1,5-a]pyrimidin-3-ylethynyl]-pyridine-3-sulfonic acid (2-hydroxy-1-hydroxymethyl-1-methyl-ethyl)-amide]	190 to 191 °C
COc1ccc(C#Cc2cnn3c(C4CC4)cc(-c4ccc(C(F)(F)F)cc4)nc23)cc1S(=O)(=O)NC(C)(C)CO [Example 81, 5-[7-Cyclopropyl-5-(4-trifluoromethyl-phenyl)-pyrazolo[1,5-a]pyrimidin-3-ylethynyl]-N-(2-hydroxy-1,1-dimethyl-ethyl)-2-methoxy-benzenesulfonamide]	192 to 195 °C
CC(C)(CO)NS(=O)(=O)c1cnc(C#Cc2cnn3c(C4CC4)cc(-c4ccc(C(F)(F)F)cc4)nc23)s1 [Example 82, 2-[7-Cyclopropyl-5-(4-trifluoromethyl-phenyl)-pyrazolo[1,5-a]pyrimidin-3-ylethynyl]-thiazole-5-sulfonic acid (2-hydroxy-1,1-dimethyl-ethyl)-amide]	243 to 245 °C
NS(=O)(=O)c1ccc(C#Cc2cnn3c(C4CC4)cc(-c4ccc(C(F)(F)F)cc4)nc23)s1 [Example 83, 5-[7-Cyclopropyl-5-(4-trifluoromethyl-phenyl)-pyrazolo[1,5-a]pyrimidin-3-ylethynyl]-thiophene-2-sulfonic acid amide]	231 to 233 °C
NS(=O)(=O)c1cccc(C#Cc2cnn3c(C4CC4)cc(-c4ccc(C(F)(F)F)cc4)nc23)c1 [Example 84, 3-[7-Cyclopropyl-5-(4-trifluoromethyl-phenyl)-pyrazolo[1,5-a]pyrimidin-3-ylethynyl]-benzenesulfonamide]	262 to 264 °C
NS(=O)(=O)c1cc(C#Cc2cnn3c(C4CC4)cc(-c4ccc(Cl)c(Cl)c4)nc23)c(F)cc1F [Example 85, 5-[7-Cyclopropyl-5-(3,4-dichloro-phenyl)-pyrazolo[1,5-a]pyrimidin-3-ylethynyl]-2,4-difluoro-benzenesulfonamide]	280 to 281 °C

SMILES	melting point
NS(=O)(=O)c1cccc(C#Cc2cnn3c(C4CC4)cc(-c4ccc(Cl)c(Cl)c4)nc23)c1 [Example 87, 3-[7-Cyclopropyl-5-(3,4-dichloro-phenyl)-pyrazolo[1,5-a]pyrimidin-3-ylethynyl]-benzenesulfonamide]	200 to 202 °C
NS(=O)(=O)c1ccc(C#Cc2cnn3c(C4CC4)cc(-c4ccc(Cl)c(Cl)c4)nc23)cc1 [Example 88, 4-[7-Cyclopropyl-5-(3,4-dichloro-phenyl)-pyrazolo[1,5-a]pyrimidin-3-ylethynyl]-benzenesulfonamide]	259 to 261 °C
NS(=O)(=O)c1ccc(C#Cc2cnn3c(C(F)(F)F)cc(-c4ccc(Cl)c(Cl)c4)nc23)s1 [Example 89, 5-[5-(3,4-Dichloro-phenyl)-7-trifluoromethyl-pyrazolo[1,5-a]pyrimidin-3-ylethynyl]-thiophene-2-sulfonic acid amide]	231 to 232 °C
CC(C)(CO)NS(=O)(=O)c1cnc(C#Cc2cnn3c(C(F)(F)F)cc(-c4ccc(Cl)c(Cl)c4)nc23)s1 [Example 90, 2-[5-(3,4-Dichloro-phenyl)-7-trifluoromethyl-pyrazolo[1,5-a]pyrimidin-3-ylethynyl]-thiazole-5-sulfonic acid (2-hydroxy-1,1-dimethyl-ethyl)-amide]	220 to 223 °C
NS(=O)(=O)c1cc(C#Cc2cnn3c(C(F)(F)F)cc(-c4ccc(Cl)c(Cl)c4)nc23)c(F)cc1F [Example 92, 5-[5-(3,4-Dichloro-phenyl)-7-trifluoromethyl-pyrazolo[1,5-a]pyrimidin-3-ylethynyl]-2,4-difluoro-benzenesulfonamide]	308 to 310 °C
NS(=O)(=O)c1cccc(C#Cc2cnn3c(C(F)(F)F)cc(-c4ccc(Cl)c(Cl)c4)nc23)c1 [Example 93, 3-[5-(3,4-Dichloro-phenyl)-7-trifluoromethyl-pyrazolo[1,5-a]pyrimidin-3-ylethynyl]-benzenesulfonamide]	230 to 231 °C
NS(=O)(=O)c1ccc(C#Cc2cnn3c(C(F)(F)F)cc(-c4ccc(Cl)c(Cl)c4)nc23)cc1 [Example 94, 4-[5-(3,4-Dichloro-phenyl)-7-trifluoromethyl-pyrazolo[1,5-a]pyrimidin-3-ylethynyl]-benzenesulfonamide]	273 to 274 °C
CC(C)(CO)NS(=O)(=O)c1cccc(C#Cc2cnn3c(C(F)(F)F)cc(-c4ccc(Cl)cc4)nc23)c1 [Example 95, 3-[5-(4-Chloro-phenyl)-7-trifluoromethyl-pyrazolo[1,5-a]pyrimidin-3-ylethynyl]-N-(2-hydroxy-1,1-dimethyl-ethyl)-benzenesulfonamide]	226 to 229 °C
NS(=O)(=O)c1cc(C#Cc2cnn3c(C(F)(F)F)cc(-c4ccc(Cl)cc4)nc23)c(F)cc1F [Example 96, 5-[5-(4-Chloro-phenyl)-7-trifluoromethyl-pyrazolo[1,5-a]pyrimidin-3-ylethynyl]-2,4-difluoro-benzenesulfonamide]	292 to 293 °C
NS(=O)(=O)c1ccc(C#Cc2cnn3c(C(F)(F)F)cc(-c4ccc(Cl)cc4)nc23)s1 [Example 97, 5-[5-(4-Chloro-phenyl)-7-trifluoromethyl-pyrazolo[1,5-a]pyrimidin-3-ylethynyl]-thiophene-2-sulfonic acid amide]	239 to 240 °C
NS(=O)(=O)c1cccc(C#Cc2cnn3c(C(F)(F)F)cc(-c4ccc(Cl)cc4)nc23)c1 [Example 98, 3-[5-(4-Chloro-phenyl)-7-trifluoromethyl-pyrazolo[1,5-a]pyrimidin-3-ylethynyl]-benzenesulfonamide]	218 to 220 °C
NS(=O)(=O)c1cccc(C#Cc2cnn3c(C(F)(F)F)cc(-c4ccc(Cl)cc4)nc23)c1 [Example 99, 3-[5-(4-Chloro-phenyl)-7-trifluoromethyl-pyrazolo[1,5-a]pyrimidin-3-ylethynyl]-benzenesulfonamide]	290 to 293 °C
Cc1cc(-c2cc(C(F)(F)F)n3ncc(C#Cc4cccnc4)c3n2)ccc1Cl [Example 101, 5-(4-Chloro-3-methyl-phenyl)-3-pyridin-3-ylethynyl-7-trifluoromethyl-pyrazolo[1,5-a]pyrimidine]	196 °C
Cc1cc(-c2cc(C(F)(F)F)n3ncc(C#Cc4cccc(S(=O)(=O)NC(C)(C)CO)c4)c3n2)ccc1Cl [Example 102, 3-[5-(4-Chloro-3-methyl-phenyl)-7-trifluoromethyl-pyrazolo[1,5-a]pyrimidin-3-ylethynyl]-N-(2-hydroxy-1,1-dimethyl-ethyl)-benzenesulfonamide]	204 °C
FC(F)(F)c1cccc(-c2cc(C(F)(F)F)n3ncc(C#Cc4cccnc4)c3n2)c1 [Example 103, 3-Pyridin-3-ylethynyl-7-trifluoromethyl-5-(3-trifluoromethyl-phenyl)-pyrazolo[1,5-a]pyrimidine]	173 °C
